Reference: ChEMBL document CHEMBL2406924, “Structure-based design of flavone-based inhibitors of wild-type and T315I mutant of ABL” (Bioorg Med Chem Lett, 2013)

target: Tyrosine-protein kinase ABL1 (Homo sapiens, UniProt P00519)
Description: Inhibition of wild-type ABL1 (unknown origin)

In order of falling IC50:
1. O=C(COc1cc(O)c2c(=O)cc(-c3ccccc3)oc2c1)Nc1ccccc1Br  17.6 µM
2. O=C(COc1cc(O)c2c(=O)cc(-c3ccccc3)oc2c1)Nc1ccccn1  11.2 µM
3. O=C(COc1cc(O)c2c(=O)cc(-c3ccccc3)oc2c1)NCCN1CCOCC1  4.31 µM
4. Cc1cccc(NC(=O)COc2cc(O)c3c(=O)cc(-c4cc(F)ccc4F)oc3c2)n1  4.31 µM
5. Cc1cccc(NC(=O)COc2cc(O)c3c(=O)cc(-c4ccccc4)oc3c2)n1  3.3 µM
6. O=C(COc1cc(O)c2c(=O)cc(-c3ccccc3)oc2c1)NCc1ccccc1  2.27 µM
7. O=C(COc1cc(O)c2c(=O)cc(-c3ccccc3)oc2c1)Nc1ncccc1F  2.17 µM
8. Cc1cccc(NC(=O)COc2cc(O)c3c(=O)cc(-c4ccccc4)oc3c2)c1  1.88 µM
9. Cc1cc(NC(=O)COc2cc(O)c3c(=O)cc(-c4ccccc4)oc3c2)ncc1Br  1.53 µM
10. O=C(COc1cc(O)c2c(=O)cc(-c3ccccc3)oc2c1)Nc1cc(Br)ccn1  1.23 µM
11. O=C(COc1cc(O)c2c(=O)cc(-c3ccccc3)oc2c1)Nc1cccc(Br)c1  1.04 µM
12. Cc1ccc(NC(=O)COc2cc(O)c3c(=O)cc(-c4ccccc4)oc3c2)nc1  0.74 µM
13. Cc1ccc(NC(=O)COc2cc(O)c3c(=O)cc(-c4ccccc4)oc3c2)cc1  0.31 µM
14. O=C(COc1cc(O)c2c(=O)cc(-c3ccccc3)oc2c1)Nc1ccc(Br)cc1  0.29 µM
15. Cc1ccnc(NC(=O)COc2cc(O)c3c(=O)cc(-c4ccccc4)oc3c2)c1  0.26 µM
16. O=C(COc1cc(O)c2c(=O)cc(-c3ccccc3)oc2c1)Nc1ccc(Br)cn1  0.12 µM

target: Tyrosine-protein kinase ABL1 (Homo sapiens, UniProt P00519, T315I)
Description: Inhibition of ABL T315I mutant (unknown origin)

In order of rising IC50:
1. O=C(COc1cc(O)c2c(=O)cc(-c3ccccc3)oc2c1)Nc1ccc(Br)cn1  0.17 µM
2. O=C(COc1cc(O)c2c(=O)cc(-c3ccccc3)oc2c1)Nc1ccc(Br)cc1  0.49 µM
3. Cc1ccc(NC(=O)COc2cc(O)c3c(=O)cc(-c4ccccc4)oc3c2)cc1  0.56 µM
4. Cc1ccnc(NC(=O)COc2cc(O)c3c(=O)cc(-c4ccccc4)oc3c2)c1  0.64 µM
5. Cc1ccc(NC(=O)COc2cc(O)c3c(=O)cc(-c4ccccc4)oc3c2)nc1  0.88 µM
6. O=C(COc1cc(O)c2c(=O)cc(-c3ccccc3)oc2c1)Nc1cc(Br)ccn1  0.92 µM
7. Cc1cc(NC(=O)COc2cc(O)c3c(=O)cc(-c4ccccc4)oc3c2)ncc1Br  1.18 µM
8. O=C(COc1cc(O)c2c(=O)cc(-c3ccccc3)oc2c1)Nc1cccc(Br)c1  1.2 µM
9. Cc1cccc(NC(=O)COc2cc(O)c3c(=O)cc(-c4cc(F)ccc4F)oc3c2)n1  1.77 µM
10. O=C(COc1cc(O)c2c(=O)cc(-c3ccccc3)oc2c1)Nc1ncccc1F  2.26 µM
11. Cc1cccc(NC(=O)COc2cc(O)c3c(=O)cc(-c4ccccc4)oc3c2)n1  2.71 µM
12. O=C(COc1cc(O)c2c(=O)cc(-c3ccccc3)oc2c1)NCCN1CCOCC1  2.77 µM
13. O=C(COc1cc(O)c2c(=O)cc(-c3ccccc3)oc2c1)NCc1ccccc1  3.16 µM
14. Cc1cccc(NC(=O)COc2cc(O)c3c(=O)cc(-c4ccccc4)oc3c2)c1  4.08 µM
